# From publication PMC8330742, “New benzothieno[2,3-c]pyridines as non-steroidal CYP17 inhibitors: design, synthesis, anticancer screening, apoptosis induction, and in silico ADME profile studies” (Journal of Enzyme Inhibition and Medicinal Chemistry, 2021)
# Experiments:
# OVCAR-4 = test: NCI-60 SRB screen; assay type: cell-based, human; conditions: Homo sapiens; single dose 10^−5 M; OVCAR-4, Ovarian cancer; read-out: Growth inhibition (%)
# SF-268 = test: NCI-60 SRB screen; assay type: cell-based, human; conditions: Homo sapiens; single dose 10^−5 M; SF-268, CNS cancer; read-out: Growth inhibition (%)
# NCI-H226 = test: NCI-60 SRB screen; assay type: cell-based, human; conditions: Homo sapiens; single dose 10^−5 M; NCI-H226, Non-small cell lung carcinoma; read-out: Growth inhibition (%)
# MDA-MB-435 = test: NCI-60 SRB screen; assay type: cell-based; conditions: Homo sapiens, MDA-MB-435, read-out: Growth inhibition (%)
# SF-295 = test: NCI-60 SRB screen; assay type: cell-based, human; conditions: Homo sapiens; single dose 10^−5 M; SF-295, CNS cancer; read-out: Growth inhibition (%)
# NCI/ADR-RES = test: NCI-60 SRB screen; assay type: cell-based, human; conditions: Homo sapiens, single dose 10^−5 M, Ovarian cancer, read-out: Growth inhibition (%)
# SK-MEL-5 = test: NCI-60 SRB screen; assay type: cell-based, human; conditions: Homo sapiens; single dose 10^−5 M; SK-MEL-5, Melanoma; read-out: Growth inhibition (%)
# SN12C = test: NCI-60 SRB screen; assay type: cell-based, human; conditions: Homo sapiens, SN12C; single dose 10^−5 M; SN 12 C, Renal cancer; read-out: Growth inhibition (%)
# NCI-H460 = test: NCI-60 SRB screen; assay type: cell-based, human; conditions: Homo sapiens; single dose 10^−5 M; NCI-H460, Non-small cell lung carcinoma; read-out: Growth inhibition (%)
# IGROV1 = test: NCI-60 SRB screen; assay type: cell-based, human; conditions: Homo sapiens, IGROV-1; single dose 10^−5 M; IGROV1, Ovarian cancer; read-out: Growth inhibition (%)
# SW-620 = test: NCI-60 SRB screen; assay type: cell-based; conditions: Homo sapiens; single dose 10^−5 M; SW-620, Colon cancer; read-out: Growth inhibition (%)
# CCRF-CEM = test: NCI-60 SRB screen; assay type: cell-based; conditions: Homo sapiens, single dose 10^−5 M, Leukaemia, read-out: Growth inhibition (%)
# LOX IMVI = test: NCI-60 SRB screen; assay type: cell-based, human; conditions: Homo sapiens, single dose 10^−5 M, Melanoma, read-out: Growth inhibition (%)
# NCI-H522 = test: NCI-60 SRB screen; assay type: cell-based, human; conditions: Homo sapiens; single dose 10^−5 M; NCI-H522, Non-small cell lung carcinoma; read-out: Growth inhibition (%)
# SK-MEL-28 = test: NCI-60 SRB screen; assay type: cell-based; conditions: Homo sapiens; single dose 10^−5 M; SK-MEL-28, Melanoma; read-out: Growth inhibition (%)
# M14 = test: NCI-60 SRB screen; assay type: cell-based, human; conditions: Homo sapiens; single dose 10^−5 M; M14, Melanoma; read-out: Growth inhibition (%)
# UO-31 = test: NCI-60 SRB screen; assay type: cell-based, human; conditions: Homo sapiens; single dose 10^−5 M; UO-31, Renal cancer; read-out: Growth inhibition (%)
# [1] = test system: panel of 60 cancer cell lines; test: NCI-60 SRB screen, mean or range over the panel; assay type: cell-based, human; conditions: Homo sapiens; mean over the cell lines; single dose 10^−5 M; read-out: Mean growth inhibition (%)
# SK-OV-3 = test: NCI-60 SRB screen; assay type: cell-based, human; conditions: Homo sapiens; single dose 10^−5 M; SK-OV-3, Ovarian cancer; read-out: Growth inhibition (%)
# NCI-H322M = test: NCI-60 SRB screen; assay type: cell-based, human; conditions: Homo sapiens, single dose 10^−5 M, Non-small cell lung carcinoma, read-out: Growth inhibition (%)
# UACC-257 = test: NCI-60 SRB screen; assay type: cell-based, human; conditions: Homo sapiens; single dose 10^−5 M; UACC-257, Melanoma; read-out: Growth inhibition (%)
# UACC-62 = test: NCI-60 SRB screen; assay type: cell-based, human; conditions: Homo sapiens; single dose 10^−5 M; UACC-62, Melanoma; read-out: Growth inhibition (%)
# K-562 = test: NCI-60 SRB screen; assay type: cell-based, human; conditions: Homo sapiens, K562; single dose 10^−5 M; K-562, Leukaemia; read-out: Growth inhibition (%)
# SR = test: NCI-60 SRB screen; assay type: cell-based; conditions: Homo sapiens, single dose 10^−5 M, Leukaemia, read-out: Growth inhibition (%)
# KM12 = test: NCI-60 SRB screen; assay type: cell-based, human; conditions: Homo sapiens; single dose 10^−5 M; KM12, Colon cancer; read-out: Growth inhibition (%)
# HT-29 = test: NCI-60 SRB screen; assay type: cell-based; conditions: Homo sapiens; single dose 10^−5 M; HT-29, Colon cancer; read-out: Growth inhibition (%)
# OVCAR-8 = test: NCI-60 SRB screen; assay type: cell-based, human; conditions: Homo sapiens; single dose 10^−5 M; OVCAR-8, Ovarian cancer; read-out: Growth inhibition (%)
# HL-60(TB) = test: NCI-60 SRB screen; assay type: cell-based, human; conditions: Homo sapiens; single dose 10^−5 M; HL-60(TB), Leukaemia; read-out: Growth inhibition (%)
# MALME-3M = test: NCI-60 SRB screen; assay type: cell-based, human; conditions: Homo sapiens, single dose 10^−5 M, Melanoma, read-out: Growth inhibition (%)
# HCT-15 = test: NCI-60 SRB screen; assay type: cell-based, human; conditions: Homo sapiens; single dose 10^−5 M; HCT-15, Colon cancer; read-out: Growth inhibition (%)
# NCI-H23 = test: NCI-60 SRB screen; assay type: cell-based, human; conditions: Homo sapiens; single dose 10^−5 M; NCI-H23, Non-small cell lung carcinoma; read-out: Growth inhibition (%)
# COLO 205 = test: NCI-60 SRB screen; assay type: cell-based, human; conditions: Homo sapiens; single dose 10^−5 M; COLO 205, Colon cancer; read-out: Growth inhibition (%)
# MOLT-4 = test: NCI-60 SRB screen; assay type: cell-based; conditions: Homo sapiens; single dose 10^−5 M; MOLT-4, Leukaemia; read-out: Growth inhibition (%)
# TK-10 = test: NCI-60 SRB screen; assay type: cell-based, human; conditions: Homo sapiens; single dose 10^−5 M; TK-10, Renal cancer; read-out: Growth inhibition (%)
# 786-0 = test: NCI-60 SRB screen; assay type: cell-based; conditions: Homo sapiens; single dose 10^−5 M; 786-0, Renal cancer; read-out: Growth inhibition (%)
# HOP-62 = test: NCI-60 SRB screen; assay type: cell-based, human; conditions: Homo sapiens; single dose 10^−5 M; HOP-62, Non-small cell lung carcinoma; read-out: Growth inhibition (%)
# RXF 393 = test: NCI-60 SRB screen; assay type: cell-based, human; conditions: Homo sapiens; single dose 10^−5 M; RXF 393, Renal cancer; read-out: Growth inhibition (%)
# HCC-2998 = test: NCI-60 SRB screen; assay type: cell-based, human; conditions: Homo sapiens; single dose 10^−5 M; HCC-2998, Colon cancer; read-out: Growth inhibition (%)
# EKVX = test: NCI-60 SRB screen; assay type: cell-based, human; conditions: Homo sapiens, single dose 10^−5 M, Non-small cell lung carcinoma, read-out: Growth inhibition (%)
# HCT-116 = test: NCI-60 SRB screen; assay type: cell-based, human; conditions: Homo sapiens; single dose 10^−5 M; HCT-116, Colon cancer; read-out: Growth inhibition (%)
# SK-MEL-2 = test: NCI-60 SRB screen; assay type: cell-based, human; conditions: Homo sapiens; single dose 10^−5 M; SK-MEL-2, Melanoma; read-out: Growth inhibition (%)
# OVCAR-3 = test: NCI-60 SRB screen; assay type: cell-based, human; conditions: Homo sapiens; single dose 10^−5 M; OVCAR-3, Ovarian cancer; read-out: Growth inhibition (%)
# ACHN = test: NCI-60 SRB screen; assay type: cell-based; conditions: Homo sapiens, single dose 10^−5 M, Renal cancer, read-out: Growth inhibition (%)
# A549/ATCC = test: NCI-60 SRB screen; assay type: cell-based, human; conditions: Homo sapiens, single dose 10^−5 M, Non-small cell lung carcinoma, read-out: Growth inhibition (%)
smiles,measurement,setting,value
"O=[N+]([O-])c1cccc(C2NC3=C(Nc4ccccc4N3)c3c2sc2c(F)cccc32)c1 (stereo not shown) [Compound 9, 9-Fluoro-7-(3-nitrophenyl)-5,6,7,13-tetrahydro[1]benzothieno[3′,2′:4,5]-pyrido[2,3-b]quinoxaline]",inhibition at 10 µM,OVCAR-4,-2.74%
same,inhibition at 10 µM,SF-268,7.06%
same,inhibition at 10 µM,NCI-H226,10.4%
same,inhibition at 10 µM,MDA-MB-435,-7%
same,inhibition at 10 µM,SF-295,-7.1%
same,inhibition at 10 µM,NCI/ADR-RES,-6.5%
same,inhibition at 10 µM,SK-MEL-5,-22%
same,inhibition at 10 µM,SN12C,1.71%
same,inhibition at 10 µM,NCI-H460,1.16%
same,inhibition at 10 µM,IGROV1,24.2%
same,inhibition at 10 µM,SW-620,2%
same,inhibition at 10 µM,CCRF-CEM,-1.14%
same,inhibition at 10 µM,LOX IMVI,3.13%
same,inhibition at 10 µM,NCI-H522,4.63%
same,inhibition at 10 µM,SK-MEL-28,-7.98%
same,inhibition at 10 µM,M14,1.33%
same,inhibition at 10 µM,UO-31,36.1%
same,inhibition at 10 µM,[1],7.87%
same,inhibition at 10 µM,SK-OV-3,-1.7%
same,inhibition at 10 µM,NCI-H322M,-1.56%
same,inhibition at 10 µM,UACC-257,-15.2%
same,inhibition at 10 µM,UACC-62,11.5%
same,inhibition at 10 µM,K-562,16.6%
same,inhibition at 10 µM,SR,16.5%
same,inhibition at 10 µM,KM12,-0.46%
same,inhibition at 10 µM,HT-29,-5.27%
same,inhibition at 10 µM,OVCAR-8,-3.4%
same,inhibition at 10 µM,HL-60(TB),-3.65%
same,inhibition at 10 µM,MALME-3M,-7.56%
same,inhibition at 10 µM,HCT-15,-4.08%
same,inhibition at 10 µM,NCI-H23,0.22%
same,inhibition at 10 µM,COLO 205,-17.1%
same,inhibition at 10 µM,MOLT-4,-1.99%
same,inhibition at 10 µM,TK-10,-54.7%
same,inhibition at 10 µM,786-0,-10.3%
same,inhibition at 10 µM,HOP-62,9.45%
same,inhibition at 10 µM,RXF 393,-15.3%
same,inhibition at 10 µM,HCC-2998,-17.5%
same,inhibition at 10 µM,EKVX,4.82%
same,inhibition at 10 µM,HCT-116,-1.05%
same,inhibition at 10 µM,SK-MEL-2,3.87%
same,inhibition at 10 µM,OVCAR-3,-3.93%
same,inhibition at 10 µM,ACHN,15.5%
same,inhibition at 10 µM,A549/ATCC,-2.98%
"N#CC1=C(Nc2ccccc2F)NC(c2cccc([N+](=O)[O-])c2)c2sc3c(F)cccc3c21 (stereo not shown) [Compound 10, 4-Cyano-8-fluoro-3((2-fluorophenyl)amino)-1–(3-nitrophenyl)-1,2-dihydro[1]benzothieno[2,3-c]pyridine]",inhibition at 10 µM,OVCAR-4,-3.9%
same,inhibition at 10 µM,SF-268,4.7%
same,inhibition at 10 µM,NCI-H226,12.8%
same,inhibition at 10 µM,MDA-MB-435,-4.45%
same,inhibition at 10 µM,SF-295,-4.19%
same,inhibition at 10 µM,NCI/ADR-RES,-8.27%
same,inhibition at 10 µM,SK-MEL-5,-19.6%
same,inhibition at 10 µM,SN12C,0.49%
same,inhibition at 10 µM,NCI-H460,-1.1%
same,inhibition at 10 µM,IGROV1,16.1%
same,inhibition at 10 µM,SW-620,2.45%
same,inhibition at 10 µM,CCRF-CEM,2.96%
same,inhibition at 10 µM,LOX IMVI,3.26%
same,inhibition at 10 µM,NCI-H522,-2.13%
same,inhibition at 10 µM,SK-MEL-28,-11%
same,inhibition at 10 µM,M14,1.68%
same,inhibition at 10 µM,UO-31,31.2%
same,inhibition at 10 µM,[1],-0.095%
same,inhibition at 10 µM,SK-OV-3,10.1%
same,inhibition at 10 µM,NCI-H322M,-0.11%
same,inhibition at 10 µM,UACC-257,-23.2%
same,inhibition at 10 µM,UACC-62,6.75%
same,inhibition at 10 µM,K-562,2.72%
same,inhibition at 10 µM,SR,13%
same,inhibition at 10 µM,KM12,0.14%
same,inhibition at 10 µM,HT-29,-14.2%
same,inhibition at 10 µM,OVCAR-8,-6.58%
same,inhibition at 10 µM,HL-60(TB),-13.1%
same,inhibition at 10 µM,MALME-3M,-15.1%
same,inhibition at 10 µM,HCT-15,-5.46%
same,inhibition at 10 µM,NCI-H23,-1.96%
same,inhibition at 10 µM,COLO 205,-13.3%
same,inhibition at 10 µM,MOLT-4,6.48%
same,inhibition at 10 µM,TK-10,-55.4%
same,inhibition at 10 µM,786-0,-12.3%
same,inhibition at 10 µM,HOP-62,8.27%
same,inhibition at 10 µM,RXF 393,-5.32%
same,inhibition at 10 µM,HCC-2998,-20.3%
same,inhibition at 10 µM,EKVX,9.27%
same,inhibition at 10 µM,HCT-116,3.44%
same,inhibition at 10 µM,SK-MEL-2,0.67%
same,inhibition at 10 µM,OVCAR-3,-1.64%
same,inhibition at 10 µM,ACHN,9.97%
same,inhibition at 10 µM,A549/ATCC,-7.45%
